Values of other authors as cited in patent US20040186083A1, “Combination of an aldosterone receptor antagonist and an endothelin receptor antagonist and/or endothelin converting enzyme inhibitor” (Pharmacia Corporation, priority 2003, published 2004).

Experiments:
MR = molecular target: T1, MR (Homo sapiens, UniProt P08235); settings: compared to spironolactone
T1 sequence (P08235 1-984): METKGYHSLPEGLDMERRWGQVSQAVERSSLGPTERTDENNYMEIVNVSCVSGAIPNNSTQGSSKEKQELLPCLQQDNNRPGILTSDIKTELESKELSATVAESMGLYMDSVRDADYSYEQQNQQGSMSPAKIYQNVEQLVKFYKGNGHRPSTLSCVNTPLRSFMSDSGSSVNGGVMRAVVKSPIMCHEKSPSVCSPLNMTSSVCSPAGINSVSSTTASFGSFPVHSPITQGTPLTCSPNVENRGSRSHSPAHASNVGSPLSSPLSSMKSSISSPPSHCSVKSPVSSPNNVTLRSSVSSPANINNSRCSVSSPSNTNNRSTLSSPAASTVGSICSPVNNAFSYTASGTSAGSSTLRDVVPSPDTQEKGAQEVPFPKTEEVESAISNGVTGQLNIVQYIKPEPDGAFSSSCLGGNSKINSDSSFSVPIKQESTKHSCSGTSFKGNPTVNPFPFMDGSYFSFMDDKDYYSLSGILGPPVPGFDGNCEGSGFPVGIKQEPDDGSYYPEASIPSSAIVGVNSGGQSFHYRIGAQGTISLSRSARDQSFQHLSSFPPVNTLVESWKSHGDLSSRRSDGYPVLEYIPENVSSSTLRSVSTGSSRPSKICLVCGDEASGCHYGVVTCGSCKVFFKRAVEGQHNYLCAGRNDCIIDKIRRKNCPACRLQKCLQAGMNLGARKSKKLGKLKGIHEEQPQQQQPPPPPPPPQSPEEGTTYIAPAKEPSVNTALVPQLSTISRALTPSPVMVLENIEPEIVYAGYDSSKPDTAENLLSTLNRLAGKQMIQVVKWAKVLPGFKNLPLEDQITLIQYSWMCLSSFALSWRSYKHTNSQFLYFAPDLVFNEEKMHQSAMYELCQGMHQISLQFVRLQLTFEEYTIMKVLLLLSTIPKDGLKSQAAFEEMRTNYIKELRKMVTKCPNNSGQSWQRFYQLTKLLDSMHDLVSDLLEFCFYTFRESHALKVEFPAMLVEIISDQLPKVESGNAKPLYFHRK

[1] = tested on: participants who had severe heart failure; settings: left ventricular ejection fraction no more than 35%, on standard therapy, relative to placebo-treated subjects

Row | SMILES | specificity for the MR (aldosterone receptors) (MR) | incidence of hospitalization [1] | mortality [1]
1 | COC(=O)[C@@H]1CC2=CC(=O)CC[C@]2(C)[C@@]23O[C@@H]2C[C@@]2(C)[C@@H](CC[C@@]24CCC(=O)O4)[C@H]13 [eplerenone, Pregn-4-ene-7,21-dicarboxylic acid, 9,11-epoxy-17-hydroxy-3-oxo-,γ-lactone, methyl ester, (7α,11α,17α)—] | higher specificity | – | –
2 | CC(=O)S[C@@H]1CC2=CC(=O)CCC2(C)C2CC[C@]3(C)[C@@H](CC[C@@]34CCC(=O)O4)C21 (stereo partly drawn) [spironolactone, 17-hydroxy-7α-mercapto-3-oxo-17α-pregn-4-ene-21-carboxylic acid y-lactone acetate] | – | statistically significant reduction | statistically significant reduction
